According to US20230067064A1, “METHODS AND COMPOSITIONS FOR MODULATING SPLICING” (SkyHawk Therapeutics, Inc., priority 2019, published 2023):
Read-outs that look alike come from different tables or passages of the source.

Legend:
[1] = test system: MDR1-MDCK cell monolayers; assay: MDCK-MDR1 permeability assay, blood-brain-barrier (BBB) penetration potential; assay type: in vitro ADME; settings: for General MDCK-MDR1: Efflux: efflux ratio
Description: (§1) Each determination is performed in duplicate. […] Analytical conditions are outlined below.
(§2) Papp=(dCr/dt)×Vr/(A×CA) (1)

mHTT protein = mHTT protein assay, 2B7-MW1 Mesoscale Discovery (MSD); assay type: cell-based, human; settings: GM04724 lymphoblast cells, 48 hours, 2B7-MW1 MSD; average; read-out: HTT Potency - Protein & Cytotoxicity: EC50 mHTT (average)
Description: Compounds are tested on GM04724 (CAG 70/20) Huntington's disease patient lymphoblast cells at doses ranging from 10 μM to 0.6 nM. 4,500 cells/well are seeded in 384 well plates. One plate replica is carried out for parallel viability testing by CellTiter Glo (CTG). Compounds are incubated for 48 hours. mHTT protein levels are assessed by the 2B7-MW1 assay via Mesoscale Discovery (MSD) as previously reported (Macdonald et al., 2014). The antibody pair is comprised of previously characterized monoclonals (2B7 and MW1) interrogating two regions for HTT conformation and biological properties: the N17 domain and the polyQ domain (Baldo et al., 2012; Ko et., 2001). 2B7-MW1 is dependent on subject/animal specific levels of HTT at the time of treatment. 2B7-MW1 is dependent on polyQ expansion (e.g., the higher the expansion the higher the signal) and on mHTT size (e.g., a similar polyQ will give higher signal with smaller HTT size). The viability readout is carried out by CTG according to the manufacturer's instructions. The results are show in Table A-10.

[2] = test system: cryptic exon within intron 49 of the Huntingtin (HTT) transcripts, GM04724 (CAG 70/20) Huntington's disease patient lymphoblasts; assay: Quantitative splicing assay (HTT); assay type: cell-based, human; settings: average
Description: GM04724 (CAG 70/20) Huntington's disease patient lymphoblasts (Coriell) are plated in 96-well v-bottom plates at 50,000 cells/well. Immediately after plating, cells are dosed with compound for 24 h at concentrations ranging from 2.5 uM to 0.15 nM (0.1% DMSO). Treated cells are lysed and cDNA synthesized using the Fast Advanced Cells-to-Ct kit (Thermofisher A35378) according to the manufacturer's instructions. 2 uL of each cDNA are used in qPCR reactions to confirm the compound-induced inclusion of a cryptic exon within intron 49 of the Huntingtin (HTT) transcripts. The qPCR reactions are prepared in 384-well plates in 10 uL volume, using TaqMan™ Fast Advanced Master Mix [ThermoFisher; 4444965] with primers and probes shown in the table below. Reactions are run in a Quant Studio 6 qPCR instrument with default settings.

[3] = test system: SMN FL and SMN Δ7 mRNA, spinal muscular atrophy (SMA) patient fibroblasts (GM03813); assay: Quantitative splicing assay (SMN); assay type: cell-based, human; settings: 24 h, average; for IC50: read-out: SMN2 Potency - Splicing: Splicing D7 IC50 (average); for EC50: read-out: SMN2 Potency - Splicing: Splicing FL EC50 (average)
Description: Spinal muscular atrophy (SMA) patient fibroblasts (GM03813, Coriell) are plated in 96-well plates at 50,000 cells/well. […] Treated cells are lysed and cDNA synthesized using the Fast Advanced Cells-to-Ct kit (Thermofisher A35378) according to the manufacturer's instructions. 2 μL of each cDNA are used in qPCR reactions. […] Reactions are run in a Quant Studio 6 qPCR instrument with default settings.

SMN protein = SMN protein assay, Mesoscale Discovery (MSD); assay type: cell-based, human; settings: SMA patient fibroblasts (GM03813), 48 hours, average, read-out: SMN2 Potency - Protein: Protein FL EC50 (average)
Description: Compounds are tested on spinal muscular atrophy (SMA) patient fibroblasts (GM03813, Coriell) at doses ranging from 2.5 μM to 0.6 nM. 7000 cells/well are seeded in 96-well plates. Compounds are incubated for 48 hours and the cells were lysed with 100 μL of lysis buffer. 20 μL of lysate is used for SMN protein measurement by Mesoscale Discovery (MSD) assay developed by PharmOptima (Michigan). A standard curve prepared with SMN protein ranging from 1 μg/ml to 19.5 pg/ml is used in each MSD plate to calculate the absolute SMN protein amount in each sample.

MDR1 = assay: MDCK-MDR1 permeability assay, blood-brain-barrier (BBB) penetration potential; assay type: in vitro ADME; settings: dog, MDCK-MDR1, pH 7.4
Description: as §1, §2

[4] = read-out: HTT Potency - Splicing: E49-50 EC50 (average)
[5] = read-out: HTT Potency - Splicing: E49b EC50 (average)
[6] = dog, MDCK-MDR1, 120 min, 5 μM, pH 7.4

Structure (SMILES)	General MDCK-MDR1: % Recov A-B ([1]; A-B direction)	General MDCK-MDR1: % Recov B-A ([1]; B-A direction)	General MDCK-MDR1: Efflux [1]	EC50 (mHTT protein)	EC50 [2, 4]	EC50 [2, 5]	IC50 [3]	EC50 [3]	EC50 (SMN protein)	General MDCK-MDR1: % Recov A-B [1, 6]	General MDCK-MDR1: % Recov B-A [1, 6]	Papp A→B at 120 min, 5 μM (MDR1)	Papp B→A at 120 min, 5 μM (MDR1)	efflux ratio at 120 min, 5 μM (MDR1)
C[C@]12CC[C@H](C[C@@H](Oc3ccc(-c4ccc(-n5ccnc5)cc4O)nn3)C1)N2 (single isomer, unassigned; ent1) [303-Ent1]	90%	90%	40	0.01 to 15 nM	16 to 50 nM	16 to 50 nM	16 to 50 nM	101 to 500 nM	0.01 to 15 nM					
CN(c1ccc(-c2ccc(-n3ccnc3)cc2O)nn1)[C@@H]1C[C@H]2CC[C@@](C)(C1)N2 (single isomer, unassigned; ent1) [304-Ent1]	94%	90%	137	0.01 to 15 nM	0.01 to 15 nM	0.01 to 15 nM			0.01 to 15 nM					
C[C@]12CC[C@H](C[C@@H](Oc3ccc(-c4ccc(-c5cn[nH]c5)cc4O)nn3)C1)N2 (single isomer, unassigned; ent1) [309-Ent1]	93%	93%	68	0.01 to 15 nM	0.01 to 15 nM	0.01 to 15 nM	0.01 to 15 nM		0.01 to 15 nM					
COc1cc(-c2ccc(-c3ccc(N(C)[C@@H]4C[C@H]5CC[C@@](C)(C4)N5)nn3)c(O)c2)cnn1 (single isomer, unassigned; ent1) [310-Ent1]	94%	89%	130	0.01 to 15 nM					501 to 10000 nM					
COc1cc(-c2ccc(-c3ccc(N(C)[C@@H]4C[C@H]5CCC[C@@](C)(C4)N5)nn3)c(O)c2)cnn1 (single isomer, unassigned; ent1) [311-Ent1]	93%	96%	180	0.01 to 15 nM					16 to 50 nM					
COCC12CCC(CC(N(C)c3ccc(-c4cc(F)c(-n5ccnc5)cc4O)nn3)C1)N2 (single isomer, unassigned; ent1) [315-Ent1]	109%	108%	103	0.01 to 15 nM	0.01 to 15 nM	0.01 to 15 nM	0.01 to 15 nM	0.01 to 15 nM	0.01 to 15 nM					
COCC12CCCC(CC(Oc3ccc(-c4ccc(-c5cnn(C)c5)cc4O)nn3)C1)N2 (single isomer, unassigned; ent1) [316-Ent1]	84%	96%	43	0.01 to 15 nM	16 to 50 nM	16 to 50 nM	16 to 50 nM	51 to 100 nM	0.01 to 15 nM					
CN(c1ccc(-c2ccc(-c3cnn(C)c3)cc2O)nn1)C1CC2CCC(C)(N2)C1F (single isomer, unassigned; ent1) [317-Ent1]	73%	98%	17	0.01 to 15 nM	0.01 to 15 nM	0.01 to 15 nM	0.01 to 15 nM	0.01 to 15 nM	0.01 to 15 nM					
CC12CCC(CC(Oc3ccc(-c4ccc(-n5ccnc5)cc4O)nn3)C1)N2 (single isomer, unassigned; ent2) [303-Ent2]	86%	88%	62	0.01 to 15 nM	0.01 to 15 nM	0.01 to 15 nM	16 to 50 nM	16 to 50 nM	0.01 to 15 nM					
CN(c1ccc(-c2ccc(-n3ccnc3)cc2O)nn1)C1CC2CCC(C)(C1)N2 (single isomer, unassigned; ent2) [304-Ent2]	87%	83%	109	0.01 to 15 nM	0.01 to 15 nM	0.01 to 15 nM			0.01 to 15 nM					
CC12CCC(CC(Oc3ccc(-c4ccc(-c5cn[nH]c5)cc4O)nn3)C1)N2 (single isomer, unassigned; ent2) [309-Ent2]	91%	86%	50	0.01 to 15 nM	0.01 to 15 nM	0.01 to 15 nM								
COc1cc(-c2ccc(-c3ccc(N(C)C4CC5CCC(C)(C4)N5)nn3)c(O)c2)cnn1 (single isomer, unassigned; ent2) [310-Ent2]	89%	80%	133	0.01 to 15 nM					16 to 50 nM					
COc1cc(-c2ccc(-c3ccc(N(C)C4CC5CCCC(C)(C4)N5)nn3)c(O)c2)cnn1 (single isomer, unassigned; ent2) [311-Ent2]	84%	83%	137	0.01 to 15 nM					16 to 50 nM					
COCC12CCC(CC(N(C)c3ccc(-c4cc(F)c(-n5ccnc5)cc4O)nn3)C1)N2 (single isomer, unassigned; ent2) [315-Ent2]	104%	107%	117	0.01 to 15 nM	0.01 to 15 nM	0.01 to 15 nM								
COCC12CCCC(CC(Oc3ccc(-c4ccc(-c5cnn(C)c5)cc4O)nn3)C1)N2 (single isomer, unassigned; ent2) [316-Ent2]	77%	106%	40	16 to 50 nM	16 to 50 nM	16 to 50 nM	16 to 50 nM	51 to 100 nM	0.01 to 15 nM					
CN(c1ccc(-c2ccc(-c3cnn(C)c3)cc2O)nn1)C1CC2(C)CCC(N2)C1F (single isomer, unassigned; ent2) [318-Ent2]				0.01 to 15 nM					0.01 to 15 nM					
CN1C2CC[C@@H]1C[C@@H](Oc1ccc(-c3ccc(-n4ccnc4)cc3O)nn1)C2 [compound 301]									501 to 10000 nM	83%	91%	2.34 ×10⁻⁶ cm/s	48.2 ×10⁻⁶ cm/s	21
CN1[C@@H]2CCC[C@H]1C[C@H](Oc1ccc(-c3ccc(-n4ccnc4)cc3O)nn1)C2 [compound 302]				501 to 10000 nM					51 to 100 nM	90%	110%	3.09 ×10⁻⁶ cm/s	55.8 ×10⁻⁶ cm/s	18
CN1[C@@H]2CCC[C@H]1C[C@H](Oc1ccc(-c3ccc(-c4cn[nH]c4)cc3O)nn1)C2 [compound 305]				51 to 100 nM					501 to 10000 nM					
CN1[C@@H]2CC[C@H]1C[C@H](Oc1ccc(-c3ccc(-c4cn[nH]c4)cc3O)nn1)C2 [compound 306]				101 to 500 nM					501 to 10000 nM	95%	102%	1.19 ×10⁻⁶ cm/s	55.4 ×10⁻⁶ cm/s	47
